According to patent US12473339B2, “Acylated glucagon analogues” (Zealand Pharma A/S, priority 2013, dated 2025):

Assays:
[1] = molecular target: T1, human glucagon-like peptide 1 receptor (GLP-1R) (Homo sapiens, UniProt P43220); experiment: GLP-1 receptor efficacy assay (cAMP AlphaScreen, CHO cells); assay type: cell-based; conditions: EC50 [GLP-1R] / EC50 [Glucagon-R], human receptors in CHO-K1
T1 construct: expressed in transfected cells
Method in brief: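 Stable CHO clones expressing the human receptor, seeded 24 h before assay. Peptides applied for 15 min at room temperature in KRBH with 0.1 mM IBMX; cells lysed and cAMP quantified by AlphaScreen. EC50 and efficacy relative to glucagon or GLP-1 from curve fitting.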

[2] = molecular target: T2, endogenous GLP-1 receptors (Mus musculus, UniProt O35659); experiment: Agonistic activity on endogenous GLP-1 receptor (cAMP, murine insulinoma cell line); assay type: cell-based; conditions: intracellular cAMP, 15 minutes at 26° C.
T2 construct: Agonistic activity of the test compounds on endogenous GLP-1 receptors; endogenous in cells
T2 sequence (O35659 22-463): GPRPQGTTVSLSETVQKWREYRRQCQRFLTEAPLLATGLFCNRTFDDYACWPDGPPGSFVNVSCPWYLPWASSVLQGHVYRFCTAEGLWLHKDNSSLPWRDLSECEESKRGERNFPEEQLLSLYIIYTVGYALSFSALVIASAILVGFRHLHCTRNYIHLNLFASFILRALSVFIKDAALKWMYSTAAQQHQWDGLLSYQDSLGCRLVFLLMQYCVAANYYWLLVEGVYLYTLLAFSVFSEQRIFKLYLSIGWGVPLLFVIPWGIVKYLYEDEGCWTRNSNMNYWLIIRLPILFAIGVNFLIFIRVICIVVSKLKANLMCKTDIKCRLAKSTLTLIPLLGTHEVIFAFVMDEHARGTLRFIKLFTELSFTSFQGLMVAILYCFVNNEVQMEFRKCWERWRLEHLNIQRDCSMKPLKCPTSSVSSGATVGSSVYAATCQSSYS
Procedure: Agonistic activity of the test compounds on endogenous GLP-1 receptors was determined using a murine insulinoma cell line. Intracellular cAMP was used an indicator of receptor activation.
Cells were cultured for 24 h at a density of 10,000 cells/well in a 384-well plate. Medium was removed and 10 μL KRBH buffer (NaCl 130 mM, KCl 3.6 mM, NaH2PO4 0.5 mM, MgSO4 0.5 mM, CaCl2 1.5 mM) containing test compound or GLP-1 (at increasing concentrations from 0.1 pM to 100 nM) or solvent control (0.1% (v/v) DMSO) was added to the wells for 15 minutes at a temperature of 26° C.
The cellular cAMP content is measured using the AlphaScreen cAMP Functional Assay Kit (Perkin Elmer). Measurement was performed using the Envision (PerkinElmer) according to manufacturer's recommendations.
Results were converted into cAMP concentrations using a cAMP standard curve prepared in KRBH buffer containing 0.1% (v/v) DMSO. The resulting cAMP curves were plotted as absolute cAMP concentrations (nM) over log (test compound concentration) and analyzed using the curve fitting program XLfit. […]

T1 sequence (P43220 24-463): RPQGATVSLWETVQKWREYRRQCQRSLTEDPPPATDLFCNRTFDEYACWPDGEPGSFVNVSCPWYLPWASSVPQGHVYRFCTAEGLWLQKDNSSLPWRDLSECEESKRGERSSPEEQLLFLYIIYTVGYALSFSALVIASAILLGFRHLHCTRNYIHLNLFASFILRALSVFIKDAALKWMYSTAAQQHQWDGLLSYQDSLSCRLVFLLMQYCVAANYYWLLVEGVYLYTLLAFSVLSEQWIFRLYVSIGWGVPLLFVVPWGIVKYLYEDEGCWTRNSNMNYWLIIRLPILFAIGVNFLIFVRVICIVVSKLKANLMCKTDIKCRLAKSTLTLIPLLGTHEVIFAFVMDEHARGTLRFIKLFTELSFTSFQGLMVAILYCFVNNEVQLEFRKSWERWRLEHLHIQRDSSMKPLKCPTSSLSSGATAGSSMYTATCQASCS

Ratio GLP-1/Glucagon [1] | EC50 [2] | SMILES
1.81 | 600 pM | CC(C)C[C@H](NC(=O)[C@H](CC(C)C)NC(=O)[C@H](Cc1c[nH]c2ccccc12)NC(=O)[C@H](CCC(=O)O)NC(=O)[C@@H](NC(=O)[C@H](Cc1ccccc1)NC(=O)[C@H](CC(=O)O)NC(=O)[C@H](Cc1c[nH]cn1)NC(=O)[C@H](C)NC(=O)[C@H](C)NC(=O)[C@H](CCCCNC(=O)CC[C@H](NC(=O)CCCCCCCCCCCCCCC(=O)O)C(=O)O)NC(=O)[C@H](CO)NC(=O)[C@H](CC(=O)O)NC(=O)[C@H](CC(C)C)NC(=O)[C@H](Cc1ccc(O)cc1)NC(=O)[C@H](CCCCN)NC(=O)[C@H](CO)NC(=O)[C@H](Cc1ccc(O)cc1)NC(=O)[C@H](CC(=O)O)NC(=O)[C@H](CO)NC(=O)[C@@H](NC(=O)[C@H](Cc1ccccc1)NC(=O)[C@@H](NC(=O)CNC(=O)[C@H](CCC(N)=O)NC(=O)C(C)(C)NC(=O)[C@@H](N)Cc1c[nH]cn1)[C@@H](C)O)[C@@H](C)O)C(C)C)C(=O)N[C@@H](CO)C(=O)N[C@@H](C)C(N)=O [Compound 1, H-H-Aib-QGTFTSDYSKYLDS-K([15-carboxy-pentadecanoyl]-isoGlu)-AAHDFVEWLLSA-NH2]
0.38 | 600 pM | CC[C@H](C)[C@H](NC(=O)[C@H](Cc1ccccc1)NC(=O)[C@H](CC(=O)O)NC(=O)[C@H](CCCCN)NC(=O)[C@H](C)NC(=O)[C@H](C)NC(=O)[C@H](CCCCNC(=O)CC[C@H](NC(=O)CCCCCCCCCCCCCCCCC(=O)O)C(=O)O)NC(=O)[C@H](CCC(=O)O)NC(=O)[C@H](CC(=O)O)NC(=O)[C@H](CC(C)C)NC(=O)[C@H](Cc1ccc(O)cc1)NC(=O)[C@H](CCCCN)NC(=O)[C@H](CO)NC(=O)[C@H](Cc1ccc(O)cc1)NC(=O)[C@H](CC(=O)O)NC(=O)[C@H](CO)NC(=O)[C@@H](NC(=O)[C@H](Cc1ccccc1)NC(=O)[C@@H](NC(=O)CNC(=O)[C@H](CCC(N)=O)NC(=O)C(C)(C)NC(=O)[C@@H](N)Cc1c[nH]cn1)[C@@H](C)O)[C@@H](C)O)C(=O)N[C@@H](CCC(=O)O)C(=O)N[C@@H](Cc1c[nH]c2ccccc12)C(=O)N[C@@H](CC(C)C)C(=O)N[C@@H](CCC(=O)O)C(=O)N[C@@H](CO)C(=O)N[C@@H](C)C(N)=O [Compound 10, H-H-Aib-QGTFTSDYSKYLDE-K([17-carboxy-heptadecanoyl]-isoGlu)-AAKDFIEWLESA-NH2]
